Values of other authors in US11859165B2, “Open-top microfluidic device with structural anchors” (EMULATE, INC., priority 2015, dated 2024).

Tested on: cell monolayers with tight junctions
Conditions: passive paracellular diffusion across cell monolayers; value reported to be indicative of well-established monolayers

- Permeability (Papp) for LY: 0.5 to 1.2 ×10⁻⁶ cm/s
Substance: Lucifer Yellow
